Data reported in US11564923B2, “Compounds and pharmaceutical compositions thereof for the treatment of inflammatory disorders” (Galapagos NV, priority 2017, dated 2023).
Where a name gives a salt, the structure may show the parent alone.

What was measured:
[1] = tested on: IFNα activation of STAT1 in PBMC; assay: IFNα activation of STAT1 in PBMC; assay type: cell-based; settings: Homo sapiens; IFNα activation of STAT1 in PBMC; average IC50; read-out: IFNα signaling inhibitory potency IC50
Procedure, shortened: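 Human PBMC, with red cells lysed by NH4Cl, were pre-treated with compound for 30 min at 37 °C and 5% CO2. They were then stimulated for 30 min with recombinant human IFNα at 5 ng/mL final.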

[2] = target: T1, Recombinant human TYK2 catalytic domain (amino acids 871-1187) (Homo sapiens, UniProt P29597); assay: TYK2 radioactive assay polyGT substrate; assay type: biochemical; also: 0.1 µM ATP
T1 construct: catalytic domain (amino acids 871-1187)
T1 sequence (P29597 871-1187): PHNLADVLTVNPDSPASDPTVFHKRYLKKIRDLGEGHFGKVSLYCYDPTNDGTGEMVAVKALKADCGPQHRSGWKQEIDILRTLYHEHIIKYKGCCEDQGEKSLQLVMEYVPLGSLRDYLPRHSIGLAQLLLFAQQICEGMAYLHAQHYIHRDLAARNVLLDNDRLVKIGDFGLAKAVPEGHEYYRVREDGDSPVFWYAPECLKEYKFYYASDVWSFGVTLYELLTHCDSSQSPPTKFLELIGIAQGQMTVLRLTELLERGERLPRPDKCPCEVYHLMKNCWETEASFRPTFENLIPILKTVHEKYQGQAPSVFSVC
Procedure, shortened: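 Reaction at 30° C. for 120 min, ended with 150 mM phosphoric acid, washed, counted; percent inhibition scaled between vehicle and 10 μM staurosporine cpm.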

[3] = target: T2, Recombinant human JAK1 (catalytic domain, amino acids 866-1154) (Homo sapiens, UniProt P23458); assay: JAK1 inhibition assay; assay type: biochemical; settings: read-out: JAK1 potency IC50
T2 construct: catalytic domain, amino acids 866-1154

[4] = tested on: IL-12 activation of STAT4 in NK-92 cells; assay: IL-12 activation of STAT4 in NK-92 cells using AphaLISA SureFire technology; assay type: cell-based; settings: Homo sapiens, NK92; IL-12 activation of STAT4 in NK-92 cells, AlphaLISA SureFire; average IC50; read-out: IL12 pSTAT4 IC50
Procedure, shortened: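 NK-92 cells, starved of rhIL-2 overnight, were stimulated with rhIL-12 for 30 min at 37 °C with test compounds, then lysed. Phospho-STAT4 (Tyr693) was read by AlphaLISA SureFire. Percent inhibition versus the vehicle-plus-trigger signal was fitted by sigmoidal nonlinear regression to give IC50, averaged over experiments.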

[5] = target: Recombinant human JAK3 catalytic domain (amino acids 781-1124) (Homo sapiens, UniProt P52333); assay: JAK3 inhibition assay; assay type: biochemical
Procedure, shortened: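 Radiometric kinase reaction run 45 min at 30° C., stopped with phosphoric acid; activity as vehicle cpm minus 10 μM staurosporine cpm.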

[6] = target: T3, Recombinant human JAK2 (catalytic domain, amino acids 808-1132) (Homo sapiens, UniProt O60674); assay: JAK2 inhibition assay; assay type: biochemical; settings: read-out: JAK2 potency IC50; also: 0.7 µM ATP
T3 construct: catalytic domain, amino acids 808-1132
T3 sequence (O60674 808-1132): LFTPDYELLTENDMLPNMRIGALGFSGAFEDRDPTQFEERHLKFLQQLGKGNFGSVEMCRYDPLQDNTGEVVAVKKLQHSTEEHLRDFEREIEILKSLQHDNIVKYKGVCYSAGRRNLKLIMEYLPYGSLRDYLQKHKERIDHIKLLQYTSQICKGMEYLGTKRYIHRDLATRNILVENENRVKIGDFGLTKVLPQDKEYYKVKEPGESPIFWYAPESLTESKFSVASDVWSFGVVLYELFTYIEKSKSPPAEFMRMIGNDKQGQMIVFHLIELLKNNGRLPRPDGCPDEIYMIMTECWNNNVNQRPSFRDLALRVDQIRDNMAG

T2 sequence (P23458 866-1154): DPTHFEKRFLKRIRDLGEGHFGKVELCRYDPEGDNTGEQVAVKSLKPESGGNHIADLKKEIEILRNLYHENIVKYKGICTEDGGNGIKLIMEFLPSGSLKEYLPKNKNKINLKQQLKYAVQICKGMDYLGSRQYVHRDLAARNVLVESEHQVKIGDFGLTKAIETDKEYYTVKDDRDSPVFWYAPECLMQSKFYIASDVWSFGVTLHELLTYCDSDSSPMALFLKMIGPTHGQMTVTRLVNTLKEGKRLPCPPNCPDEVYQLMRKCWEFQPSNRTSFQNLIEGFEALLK
Chain of Recombinant human JAK3 catalytic domain (amino acids 781-1124) (P52333 781-1124): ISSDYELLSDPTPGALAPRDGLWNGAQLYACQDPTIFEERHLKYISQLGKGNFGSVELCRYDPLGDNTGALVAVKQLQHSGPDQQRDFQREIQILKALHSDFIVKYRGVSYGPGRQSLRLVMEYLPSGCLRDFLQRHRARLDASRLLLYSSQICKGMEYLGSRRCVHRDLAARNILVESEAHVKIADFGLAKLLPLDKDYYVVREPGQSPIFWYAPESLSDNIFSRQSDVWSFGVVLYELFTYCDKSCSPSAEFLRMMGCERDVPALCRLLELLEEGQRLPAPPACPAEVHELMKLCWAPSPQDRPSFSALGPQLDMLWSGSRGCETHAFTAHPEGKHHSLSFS

| Compound | IC50 [2] [nM] | IC50 [3] [nM] | IC50 [4] [nM] | IC50 [5] [nM] | IC50 [6] [nM] | IC50 [1] [nM] |
| --- | --- | --- | --- | --- | --- | --- |
| Cc1cc(C#N)nnc1Oc1cc(Nc2cc(N)ncn2)c2ncn(C)c2n1 [Compound 3, 6-[7-(6-Amino-pyrimidin-4-ylamino)-3-methyl-3H-imidazo[4,5-b]pyridin-5-yloxy]-5-methyl-pyridazine-3-carbonitrile] | 12.7 | 110 | 274 | 2160 | 78 | 119 |
| Cc1cc(C#N)ncc1Oc1cc(Nc2cc(NCCC(C)(C)O)ncn2)c2ncn(C)c2n1 [Compound 33, 5-{7-[6-(3-Hydroxy-3-methyl-butylamino)-pyrimidin-4-ylamino]-3-methyl-3H-imidazo[4,5-b]pyridin-5-yloxy}-4-methyl-pyridine-2-carbonitrile] | 2.93 | 67.6 | 129 | 503 | 23.1 | 72 |
| CC(C)[C@@H](Nc1cc(Nc2cc(N)ncn2)c2ncn(C)c2n1)C(F)(F)F [Compound 98, N7-(6-aminopyrimidin-4-yl)-3-methyl-N5-[(1R)-2-methyl-1-(trifluoromethyl)propyl]imidazo[4,5-b]pyridine-5,7-diamine] | 3.04 | 28.2 | 18.9 | 48.2 | 6.31 | 38 |
| CC(C)C(Nc1cc(Nc2ccc(S(C)(=O)=O)cn2)c2ncn(C)c2n1)C(F)(F)F (stereo not drawn) [Compound 65, 3-methyl-N7-(5-methylsulfonyl-2-pyridiyl)-N5-[2-methyl-1-(trifluoromethyl)propyl]imidazo[4,5-b]pyridine-5,7-diamine] | 7.84 | 69.4 | 80 | 69.7 | 12.4 | 96 |
| COCCCS(=O)(=O)c1ccc(Nc2cc(Oc3cnc(C#N)cc3C)nc3c2ncn3C)cc1 [Compound 71, 5-[7-[4-(3-methoxypropylsulfonyl)anilino]-3-methyl-imidazo[4,5-b]pyridin-5-yl]oxy-4-methyl-pyridine-2-carbonitrile] | 13.6 | 103 | 128 | 1080 | 86.2 | 111 |
| COCCCN(c1cc(Nc2cc(N)ncn2)c2ncn(C)c2n1)c1cnc(C#N)cc1C [Compound 4, 5-[[7-(6-Amino-pyrimidin-4-ylamino)-3-methyl-3H-imidazo[4,5-b]pyridin-5-yl]-(3-methoxy-propyl)-amino]-4-methyl-pyridine-2-carbonitrile] | 4.37 | 92.3 | 198 | 784 | 16.4 | 91 |
| COCCNc1cc(Nc2cc(Oc3cnc(C#N)cc3C)nc3c2ncn3C)ncn1 [Compound 31, 5-{7-[6-(2-Methoxy-ethylamino)-pyrimidin-4-ylamino]-3-methyl-3H-imidazo[4,5-b]pyridin-5-yloxy}-4-methyl-pyridine-2-carbonitrile] | 8.01 | 187 | 110 | 1050 | 43.8 | 94 |

The next lines start with results.

| IC50 [2] [nM] | IC50 [3] [nM] | IC50 [4] [nM] | IC50 [5] [nM] | IC50 [6] [nM] | Compound | IC50 [1] [nM] |
| --- | --- | --- | --- | --- | --- | --- |
| 8.81 | 73.1 | 266 | 979 | 38.8 | Cc1cc(C#N)ncc1Oc1cc(Nc2ccc(C3CCOCC3)cn2)c2ncn(C)c2n1 [Compound 87, 4-methyl-5-[3-methyl-7-[[5-(oxan-4-yl)pyridin-2-yl]amino]imidazo[4,5-b]pyridin-5-yl]oxypyridine-2-carbonitrile] | 158 |
| 8.47 | 205 | 181 | 2030 | 32.3 | COCC1CN(C(=O)c2ccc(Nc3cc(Oc4cnc(C#N)cc4C)nc4c3ncn4C)nn2)C1 [Compound 117, 5-[7-[[6-[3-(methoxymethyl)azetidine-1-carbonyl]pyridazin-3-yl]amino]-3-methyl-imidazo[4,5-b]pyridin-5-yl]oxy-4-methyl-pyridine-2-carbonitrile] | 148 |
| 6.83 | 150 | 224 | 386 | 10.4 | Cc1cc(C#N)ncc1Oc1cc(Nc2ccc(CN(C)C)cn2)c2ncn(C)c2n1 [Compound 81, 5-[7-[[5-[(dimethylamino)methyl]pyridin-2-yl]amino]-3-methylimidazo[4,5-b]pyridin-5-yl]oxy-4-methylpyridine-2-carbonitrile formate salt] | 56 |
| 2.22 | 19.9 | 83 | 392 | 5.2 | CCNC(c1ccc(Nc2cc(Oc3cnc(C#N)cc3C)nc3c2ncn3C)nc1)C(F)(F)F (stereo not drawn) [Compound 80, 5-[7-[[5-[1-(ethylamino)-2,2,2-trifluoroethyl]pyridin-2-yl]amino]-3-methylimidazo[4,5-b]pyridin-5-yl]oxy-4-methylpyridine-2-carbonitrile] | 93 |
| 6.61 | 81.7 | 769 | 409 | 18.2 | Cc1cc(C#N)ncc1Oc1cc(Nc2ccc(N3CCNCC3)cn2)c2ncn(C)c2n1 [Compound 180, 4-methyl-5-[3-methyl-7-[(5-piperazin-1-yl-2-pyridyl)amino]imidazo[4,5-b]pyridin-5-yl]oxy-pyridine-2-carbonitrile] | 84 |
| 9.06 | 197 | 506 | 446 | 22.9 | Cc1cc(C#N)ncc1Oc1cc(Nc2ccc(OC3CCN(C)CC3)cn2)c2ncn(C)c2n1 [Compound 86, 4-methyl-5-[3-methyl-7-[[5-(1-methylpiperidin-4-yl)oxypyridin-2-yl]amino]imidazo[4,5-b]pyridin-5-yl]oxypyridine-2-carbonitrile] | 121 |
| 11 | 71.5 | 476 | 1990 | 110 | Cc1cc(C#N)ncc1Oc1cc(Nc2ccc(C3(O)COC3)cc2)c2ncn(C)c2n1 [Compound 89, 5-[7-[4-(3-hydroxyoxetan-3-yl)anilino]-3-methylimidazo[4,5-b]pyridin-5-yl]oxy-4-methylpyridine-2-carbonitrile] | 266 |
